ChEMBL document CHEMBL5604063, “ASAP - DENV-2 NS2B-NS3 protease fluorescence dose response” (2024)
Where “and” joins values, the source holds several entries; their conditions need not be identical. Equal entries are not always repeated.

Experiments:
[1] = biological target: T1, Genome polyprotein (dengue virus type 2, UniProt P29990); format: functional, Thailand/16681/1984
[2] = biological target: T1, Genome polyprotein; format: functional, Thailand/16681/1984; remark: listed apart in the source

T1 sequence (P29990 1346-1475 limits assumed): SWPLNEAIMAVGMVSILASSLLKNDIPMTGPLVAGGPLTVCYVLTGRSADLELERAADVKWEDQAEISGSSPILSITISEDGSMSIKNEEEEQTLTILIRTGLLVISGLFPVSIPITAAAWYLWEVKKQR
T1 sequence (P29990 1476-2093 limits assumed): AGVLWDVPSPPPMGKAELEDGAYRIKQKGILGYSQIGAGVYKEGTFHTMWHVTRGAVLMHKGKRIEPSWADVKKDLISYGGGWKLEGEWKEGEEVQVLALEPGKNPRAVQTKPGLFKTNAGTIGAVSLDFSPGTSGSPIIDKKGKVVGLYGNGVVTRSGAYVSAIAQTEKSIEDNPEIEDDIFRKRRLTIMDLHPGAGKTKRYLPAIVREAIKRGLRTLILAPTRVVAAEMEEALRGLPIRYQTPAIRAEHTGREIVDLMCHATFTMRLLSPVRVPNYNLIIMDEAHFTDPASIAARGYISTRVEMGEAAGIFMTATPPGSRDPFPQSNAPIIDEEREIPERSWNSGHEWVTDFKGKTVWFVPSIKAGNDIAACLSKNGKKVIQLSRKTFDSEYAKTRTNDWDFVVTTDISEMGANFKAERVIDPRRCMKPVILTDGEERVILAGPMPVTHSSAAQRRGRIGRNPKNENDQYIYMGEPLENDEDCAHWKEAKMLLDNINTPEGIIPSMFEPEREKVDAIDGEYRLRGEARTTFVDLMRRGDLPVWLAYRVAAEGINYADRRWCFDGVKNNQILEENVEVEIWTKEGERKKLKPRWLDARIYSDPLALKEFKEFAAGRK

SMILES	IC50 [1]	IC50 [2]
NCc1cccc(NC(=O)c2cc(C3CC3)nc3ccc(Cl)cc23)c1	> 100 µM	> 99.5 µM
O=C(Nc1cc(Cl)cc(C(=O)Nc2ccnc([C@H]3CCCN3)n2)c1)OCc1ccccc1	> 100 µM	> 99.5 µM
NCc1cccc([C@H]2C[C@@H]2c2cc(Cl)cc(NC(=O)OCc3ccccc3)c2)c1	> 100 µM	41 µM and 25.9 µM and 30 µM
CS(=O)(=O)N(c1cc(Cl)cc(C(=O)Nc2cccc(CN)c2)c1)S(C)(=O)=O	> 100 µM	> 99.5 µM
Cc1cc(CN)cc(C)c1NS(=O)(=O)c1ccc(Oc2ccccc2Cl)cc1	> 100 µM	> 99.5 µM
NC1(c2cccc(NS(=O)(=O)c3ccc(Oc4ccccc4Cl)cc3)c2)CCOCC1	> 100 µM	> 99.5 µM
CCc1c(C(=O)Nc2cccc(CN)c2)c2cc(Cl)ccc2n1C	> 100 µM	> 99.5 µM
O=c1ccc(N2CCN(Cc3c[nH]c4ccccc34)CC2)c[nH]1	> 100 µM	> 99.5 µM
COc1cn(-c2cccc(C(F)(F)F)c2)nc1C(=O)Nc1cccc(CN)c1	> 100 µM	> 99.5 µM
CCOc1cccc(-c2ccc(S(=O)(=O)Nc3ccc(Cl)cc3C(=O)O)cc2C)c1	7.34 µM	7.15 µM
NC1CN(c2ccc(NS(=O)(=O)c3ccc(Oc4ccccc4Cl)cc3)cn2)C1	> 100 µM	> 99.5 µM
NCc1cccc(NC(=O)[C@H](NC(=O)OCc2ccccc2)c2cccc(-c3ccnc(N)c3)c2)c1	> 100 µM	> 99.5 µM
Cc1cc(C(=O)Nc2cccc(CN)c2)n2nc(C(F)(F)F)cc2n1	> 100 µM	86.7 µM
CC(C)(C)OC(=O)NCc1cccc(NC(=O)C[C@H](N)c2ccc(OCc3ccccc3)c(Br)c2)c1	> 100 µM	> 99.5 µM
N[C@H]1CCCc2ccc(NC(=O)c3cc(Cl)cc(NC(=O)OCc4ccccc4)c3)cc21	> 100 µM	> 99.5 µM
NC1(c2cccc(NC(=O)c3cc(Cl)cc(NC(=O)OCc4ccccc4)c3)c2)CCOCC1	> 100 µM	> 99.5 µM
Cc1ccc(OCc2ccccc2Cl)c(C(=O)Nc2cccc(CN)c2)c1	> 100 µM	99.5 µM
CS(=O)(=O)Nc1cc(Cl)cc(C(=O)Nc2cccc(CN)c2)c1	> 100 µM	> 99.5 µM
CCc1cc(NC(=O)OCc2ccccc2)cc(C(=O)Nc2cccc(CN)c2)c1	> 100 µM	> 99.5 µM
NCc1cccc(NC(=O)c2cc(CO)cc(NC(=O)OCc3ccccc3)c2)c1	> 100 µM	> 99.5 µM
NCc1cc(Cl)cc(C(=O)Nc2cccc(C3CCNCC3)c2)c1	> 100 µM	> 99.5 µM
COc1ccc(-c2cccc([C@H](NC(=O)OCc3ccccc3)C(=O)Nc3cccc(CN)c3)c2)c(C#N)c1	> 100 µM	56.5 µM
NCc1cccc(NC(=O)[C@H](NC(=O)OCc2ccccc2)c2cccc(-c3ccccn3)c2)c1	> 100 µM	> 99.5 µM

SMILES	IC50 [1]	IC50 [2]
NCc1cccc(NC(=O)[C@H]2CCc3nnc(-c4ccc(F)cc4)n3C2)c1	> 100 µM	> 99.5 µM
Cc1ccc(NS(=O)(=O)c2ccc(Oc3ccccc3Cl)cc2)cc1CN	> 100 µM	> 99.5 µM
CC(C)(CNCc1c[nH]c2ccccc12)c1cccnc1	> 100 µM	> 99.5 µM
NCc1cccc(NC(=O)c2cc(Cl)cc(NC(=O)NCc3ccccc3)c2)c1	> 100 µM	> 99.5 µM
CCCN(C)C(=O)Cn1ccnc(N2CC[C@H](CO)C2)c1=O	> 100 µM	> 99.5 µM
O=C(Nc1cc(Cl)cc(C(=O)Nc2nc([C@H]3CCCN3)cc(=O)[nH]2)c1)OCc1ccccc1	> 100 µM	86.9 µM
CCc1onc(-c2ccc(Br)cc2)c1C(=O)Nc1cccc(CN)c1	> 100 µM	> 99.5 µM
O=C(Nc1cc(Cl)cc(C(=O)Nc2cccc([C@H]3CCCN3)c2)c1)OCc1ccccc1	> 100 µM	95.3 µM
NCc1cccc(NC(=O)[C@@H]2C[C@@H](O)CN2C(=O)C23CC4CC(CC(C4)C2)C3)c1	> 100 µM	> 99.5 µM
NCc1cccc(NC(=O)c2cc3c(F)cc(F)c(F)c3[nH]2)c1	> 100 µM	> 99.5 µM
NCc1cccc(NC(=O)[C@H](NC(=O)OCc2ccccc2)c2cccc(-c3ccc4c(c3)CC(=O)N4)c2)c1	> 100 µM	16.2 µM and 7.19 µM
NCc1ccc(NS(=O)(=O)c2ccc(Oc3ccccc3Cl)cc2)cc1Cl	> 100 µM	> 99.5 µM
N[C@H](CO)c1cccc(NC(=O)c2cc(Cl)cc(NC(=O)OCc3ccccc3)c2)c1	> 100 µM	> 99.5 µM
Cc1c(F)cc(C(=O)Nc2cccc(CN)c2)c(F)c1NC(=O)OCc1ccccc1	100 µM	69.8 µM
NC1CN(c2ncccc2NS(=O)(=O)c2ccc(Oc3ccccc3Cl)cc2)C1	> 100 µM	> 99.5 µM
NC1(c2cccc(NC(=O)c3cc(Cl)cc(NC(=O)OCc4ccccc4)c3)c2)CC1	> 100 µM	> 99.5 µM
NC(=O)c1cccc(NC(=O)c2cc(Cl)cc(NC(=O)OCc3ccccc3)c2)c1	> 100 µM	> 99.5 µM
CCc1cc(C(=O)Nc2cccc(CN)c2)sc1-c1ccc(Cl)cc1	> 100 µM	19.7 µM and 24.8 µM
C=C(C)c1cc(NC(=O)OCc2ccccc2)cc(C(=O)Nc2cccc(CN)c2)c1	> 100 µM	50.4 µM
O=C(Cn1ccnc(N2CC[C@H](CO)C2)c1=O)NCc1cc[nH]n1	> 100 µM	> 99.5 µM
O=C(Cn1ccnc(N2CC[C@H](CO)C2)c1=O)N1CCOCC1	> 100 µM	> 99.5 µM
NC1(c2cc(C(F)(F)F)ccc2NS(=O)(=O)c2ccc(Oc3ccccc3Cl)cc2)CC1	> 100 µM	> 99.5 µM
NCc1cccc(NC(=O)[C@H](NC(=O)OCc2ccccc2)c2ccc(OCc3ccccc3)c(Br)c2)c1	> 100 µM	30.4 µM

SMILES	IC50 [1]	IC50 [2]
NCc1cccc(NC(=O)c2nn(-c3ccccc3F)cc2Br)c1	> 100 µM	> 99.5 µM
O=C(Nc1cc(Cl)cc(C(=O)Nc2cccc([C@H]3CNCCO3)c2)c1)OCc1ccccc1	> 100 µM	> 99.5 µM
NCCc1cccc(NC(=O)[C@H]2[C@H]3CCCCC[C@H]3[C@H]2NC(=O)OCc2ccccc2)c1	12.1 µM	8.41 µM and 7.22 µM
NCc1cccc(CCc2cc(Cl)cc(NC(=O)OCc3ccccc3)c2)c1	> 100 µM	34.8 µM
NCCOc1ccnc(NS(=O)(=O)c2ccc(Oc3ccccc3Cl)cc2)c1	> 100 µM	> 99.5 µM
NCc1cccc(NC(=O)C[C@H](CC(N)=O)c2ccc(F)cc2)c1	> 100 µM	> 99.5 µM
N[C@H]1CCc2ccc(NC(=O)c3cc(Cl)cc(NC(=O)OCc4ccccc4)c3)cc21	> 100 µM	91.2 µM
CS(=O)(=O)Nc1c(Cl)cc(Cl)cc1C(=O)Nc1cccc(CN)c1	> 100 µM	> 99.5 µM
Cc1cc(CN)cc(NS(=O)(=O)c2ccc(Oc3ccccc3Cl)cc2)c1	> 100 µM	> 99.5 µM
NCc1cccc(NC(=O)c2ccnc3[nH]c(C4CCOCC4)nc23)c1	> 100 µM	> 99.5 µM
COc1ccc(COc2ccc([C@H](NC(=O)OCc3ccccc3)C(=O)Nc3cccc(CN)c3)cc2)cn1	> 100 µM	> 99.5 µM
NC1(c2ccccc2NS(=O)(=O)c2ccc(Oc3ccccc3Cl)cc2)CC1	> 100 µM	> 99.5 µM
NCc1cccc(NC(=O)[C@H](NC(=O)OCc2ccccc2)c2ccc(OCC3CCC3)cc2)c1	> 100 µM	48.8 µM
OC[C@H](Cc1cccnc1)NCc1c[nH]c2ccccc12	> 100 µM	> 99.5 µM
CC(C)c1nc2c(C(=O)Nc3cccc(CN)c3)cccc2[nH]1	> 100 µM	> 99.5 µM
Cc1ccc(-n2nc(C(=O)Nc3cccc(CN)c3)ccc2=O)cc1Cl	> 100 µM	> 99.5 µM
COc1cc(C(=O)Nc2cccc(CN)c2)cc(NC(=O)OCc2ccccc2)c1Cl	> 100 µM	> 99.5 µM
NC1(c2cccc(NS(=O)(=O)c3ccc(Oc4ccccc4Cl)cc3)c2)CCC1	> 100 µM	> 99.5 µM
NCc1cccnc1NS(=O)(=O)c1ccc(Oc2ccccc2Cl)cc1	> 100 µM	> 99.5 µM
N[C@H]1CCOc2ccc(NC(=O)c3cc(Cl)cc(NC(=O)OCc4ccccc4)c3)cc21	> 100 µM	> 99.5 µM
O=C(O)C[C@H](NC(=O)OCc1ccccc1)c1ccc(OCc2ccccc2)c(Br)c1	45.6 µM	59.8 µM
